Results on 18 compounds are retold here after article PMC4303583 (International journal of biological macromolecules, 2012).

Like-named read-outs stand apart in the source and are kept apart here.

Test [1] addresses T1, E. coli ATP synthase (purified F1 or membrane bound F1Fo) (Escherichia coli, UniProt P0ABA6+P0ABB0+P0ABB4). Briefly: biochemical. The format is biochemical.
The subject of test [2] is wild-type E. coli strain pBWU13.4/DK8. The format is cell-based, Escherichia coli.
Test [3] concerns the target T1, E. coli ATP synthase (purified F1 or membrane bound F1Fo). The following applies: maximal inhibition; cited from earlier work.
The mark [4] stands for this setting: left over ATPase activity at maximal inhibition.
Setting [5] is: purified F1 or membranes, preincubated 60 min at 23°C, varied concentrations.
[6] abbreviates: OD595 after ~20 hours growth at 37 °C, control 100, null 45.
The mark [7] stands for this setting: left over ATPase activity at maximal inhibition, purified F1 or membranes.

T1 sequence (P0ABA4 whole entry): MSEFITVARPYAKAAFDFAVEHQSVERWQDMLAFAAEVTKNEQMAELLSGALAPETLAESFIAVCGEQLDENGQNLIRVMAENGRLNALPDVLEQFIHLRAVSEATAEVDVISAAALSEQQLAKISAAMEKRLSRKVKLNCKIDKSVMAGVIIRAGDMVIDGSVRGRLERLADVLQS
T1 sequence (P0ABB4 2-460): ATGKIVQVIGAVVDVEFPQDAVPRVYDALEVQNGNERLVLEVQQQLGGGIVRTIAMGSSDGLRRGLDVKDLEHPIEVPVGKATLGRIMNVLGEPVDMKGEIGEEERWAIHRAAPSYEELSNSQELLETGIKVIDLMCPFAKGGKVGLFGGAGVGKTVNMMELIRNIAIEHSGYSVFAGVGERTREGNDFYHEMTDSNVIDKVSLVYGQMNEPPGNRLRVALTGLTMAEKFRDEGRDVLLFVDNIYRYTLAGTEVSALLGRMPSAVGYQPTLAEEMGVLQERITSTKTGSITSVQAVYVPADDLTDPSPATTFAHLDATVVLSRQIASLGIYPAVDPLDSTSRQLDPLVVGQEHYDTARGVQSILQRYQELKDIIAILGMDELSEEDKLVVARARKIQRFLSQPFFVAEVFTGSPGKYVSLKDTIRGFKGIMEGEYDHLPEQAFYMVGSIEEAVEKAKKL
T1 sequence (P0ABA6 whole entry): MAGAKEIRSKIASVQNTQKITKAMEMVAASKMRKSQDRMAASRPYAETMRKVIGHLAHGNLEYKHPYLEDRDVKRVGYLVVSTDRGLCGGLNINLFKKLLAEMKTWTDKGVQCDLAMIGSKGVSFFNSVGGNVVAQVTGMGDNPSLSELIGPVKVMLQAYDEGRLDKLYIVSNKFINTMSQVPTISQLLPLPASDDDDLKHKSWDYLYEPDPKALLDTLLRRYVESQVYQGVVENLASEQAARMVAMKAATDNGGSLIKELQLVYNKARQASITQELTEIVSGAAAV
T1 sequence (P0A6E6 2-139, further chain): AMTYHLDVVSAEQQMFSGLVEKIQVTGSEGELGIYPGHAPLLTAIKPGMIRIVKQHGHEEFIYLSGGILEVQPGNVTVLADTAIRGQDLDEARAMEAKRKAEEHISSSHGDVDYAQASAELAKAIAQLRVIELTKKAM
T1 sequence (P0ABB0 whole entry): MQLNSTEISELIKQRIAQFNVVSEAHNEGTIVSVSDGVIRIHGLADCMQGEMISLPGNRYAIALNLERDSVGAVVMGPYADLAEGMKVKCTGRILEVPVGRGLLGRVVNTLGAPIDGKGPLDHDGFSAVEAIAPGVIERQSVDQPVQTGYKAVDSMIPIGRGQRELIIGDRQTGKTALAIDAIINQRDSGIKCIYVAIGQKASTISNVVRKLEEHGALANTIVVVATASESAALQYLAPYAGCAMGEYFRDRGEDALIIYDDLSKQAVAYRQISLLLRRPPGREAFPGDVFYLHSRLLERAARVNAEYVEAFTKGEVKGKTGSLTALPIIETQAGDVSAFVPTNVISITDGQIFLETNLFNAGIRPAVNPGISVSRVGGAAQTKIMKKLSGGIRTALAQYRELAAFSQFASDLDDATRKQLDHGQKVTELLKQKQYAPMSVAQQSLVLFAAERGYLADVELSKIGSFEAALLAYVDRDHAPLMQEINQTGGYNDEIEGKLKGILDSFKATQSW

Consider `Oc1ccccc1C=Nc1ccccc1O` [PC09, 2-[[(2-Hydroxyphenyl)imino]methyl]phenol], for which the IC50 (in general, the point on the concentration scale where inhibition reaches its midpoint) in test [1] was approximately 7 µM. Besides, in test [1] (setting [4]), the “Residual ATPase Activity (%)” value turned out to be 5%.
`O=[N+]([O-])c1ccc(OP(=O)(O)Oc2ccc([N+](=O)[O-])cc2)cc1` [PC15, Bis(4-nitrophenyl)phosphate]: the “Residual ATPase Activity (%)” value in test [1] (setting [4]) turned out to be 60%. Also, the “maximum amount of inhibition of ATPase activity” value in test [1] (setting [5]) is listed as ~ 40%. Further, the “Growth yield in limiting glucose (%)” value in test [2] (setting [6]) is given as 63%.
Compound `Oc1cccc(N=Cc2ccccc2O)c1` [PC06, 2-[[(3-Hydroxyphenyl)imino]methyl]phenol] yielded an IC50 in test [1] of approximately 5.25 µM. Also, the “Residual ATPase Activity (%)” value in test [1] (setting [4]) is 15%. For the same compound, the “Growth yield in limiting glucose (%)” value in test [2] (setting [6]) is 51%.
With `Oc1cccc(O)c1` [PC03, Resorcinol], the “Residual ATPase Activity (%)” value in test [1] (setting [4]) came to 80%. Besides, in test [1] (setting [7]), the “residual activity” value is reported as ~ 80%. Moreover, the “maximum amount of inhibition of ATPase activity” value in test [1] (setting [5]) is ~ 20%. Further, the “Growth yield in limiting glucose (%)” value in test [2] (setting [6]) was 79%.
On to `O=[N+]([O-])c1ccc(OP(=O)(Oc2ccc([N+](=O)[O-])cc2)Oc2ccc([N+](=O)[O-])cc2)cc1` [PC14, Tris(4-nitrophenyl)phosphate], for which the “Residual ATPase Activity (%)” value in test [1] (setting [4]) is on record as 55%. The “residual activity” value in test [1] (setting [7]) was ~ 55%. In test [1] (setting [5]), the “maximum amount of inhibition of ATPase activity” value is given as ~ 45%. Moreover, in test [2] (setting [6]), the “Growth yield in limiting glucose (%)” value came out at 57%.
Compound `O=[N+]([O-])c1cc(O)ccc1N=Cc1ccccc1O` [PC12, 2-[[(4-Hydroxy-2-nitrophenyl)imino]methyl]phenol] yielded an IC50 in test [1] of approximately 6 µM. In test [1] (setting [4]), the “Residual ATPase Activity (%)” value worked out at 0%.
In test [1], `Oc1ccc(N=Cc2ccccc2O)cc1` [PC05, 2-[[(4-hydroxyphenyl)Imino]methyl]phenol] returned an IC50 of approximately 5 µM. Moreover, the “Residual ATPase Activity (%)” value in test [1] (setting [4]) came out at 0%. Moreover, the “Growth yield in limiting glucose (%)” value in test [2] (setting [6]) is 42%.
With `Oc1ccccc1O` [PC04, Catechol], the “Residual ATPase Activity (%)” value in test [1] (setting [4]) came out at 60%. In test [1] (setting [7]), the “residual activity” value is given as ~ 60%. In test [1] (setting [5]), the “maximum amount of inhibition of ATPase activity” value is recorded as ~ 40%. Also, in test [2] (setting [6]), the “Growth yield in limiting glucose (%)” value came to 57%.
For the compound `Oc1cccc(C=Nc2cccc(O)c2)c1` [PC10, 3-[[(3-Hydroxyphenyl)imino]methyl]phenol], the IC50 in test [1] is approximately 2.25 µM. In addition, in test [1] (setting [4]), the “Residual ATPase Activity (%)” value is 0%.
Take `Oc1ccc(/C=C/c2cc(O)cc(O)c2)cc1` [resveratrol]: in test [3], the “inhibition of E. coli ATP synthase” value was ~ 40%.
`O=C1c2cccc(O)c2C(=O)c2c(O)cccc21` [PC16, 1,8-Dihydroxy-9,10-anthraquinone]: the “Residual ATPase Activity (%)” value in test [1] (setting [4]) is 78%. Also, the “residual activity” value in test [1] (setting [7]) is ~ 78%. In test [1] (setting [5]), the “maximum amount of inhibition of ATPase activity” value was ~ 22%. The “Growth yield in limiting glucose (%)” value in test [2] (setting [6]) is 80%.
As for `Oc1ccc(C=Nc2cccc(O)c2)cc1` [PC08, 4-[[(3-Hydroxyphenyl)imino]methyl]phenol], in test [1], the IC50 is approximately 9 µM. In test [1] (setting [4]), the “Residual ATPase Activity (%)” value was 0%.
In the case of `Oc1ccc(C=Nc2ccc(O)cc2)cc1` [PC11, 4-[[(4-Hydroxyphenyl)imino]methyl]phenol], the “Residual ATPase Activity (%)” value in test [1] (setting [4]) was 80%. For the same compound, the “residual activity” value in test [1] (setting [7]) is recorded as ~ 80%.
For the compound `Cc1cc(O)c(C(C)C)cc1O` [PC01, Dihydrothymoquinone], the “Residual ATPase Activity (%)” value in test [1] (setting [4]) was 60%. The “residual activity” value in test [1] (setting [7]) is reported as ~ 60%. For the same compound, the “maximum amount of inhibition of ATPase activity” value in test [1] (setting [5]) is reported as ~ 40%. Besides, the “Growth yield in limiting glucose (%)” value in test [2] (setting [6]) is listed as 66%.
As for `Oc1cccc(C=Nc2ccccc2O)c1` [PC07, 3-[[(2-Hydroxyphenyl)imino]methyl]phenol], in test [1], the IC50 was approximately 9 µM. The “Residual ATPase Activity (%)” value in test [1] (setting [4]) is 15%.
As for `Oc1ccc(O)cc1` [PC02, Hydroquinone], in test [1], the IC50 was approximately 20 µM, the “Residual ATPase Activity (%)” value came out at 20% and the “maximum amount of inhibition of ATPase activity” value was ~ 80%. Also, in test [2], the “Growth yield in limiting glucose (%)” value was determined as 55%.
As to 1,8,9-Anthracentriol [PC17], the “Residual ATPase Activity (%)” value in test [1] (setting [4]) turned out to be 70%. Besides, the “maximum amount of inhibition of ATPase activity” value in test [1] (setting [5]) was ~ 30%. In test [2] (setting [6]), the “Growth yield in limiting glucose (%)” value came out at 69%.
With `O=[N+]([O-])c1ccc(N=Cc2ccccc2O)c(O)c1` [PC13, 2-[[(2-Hydroxy-4-nitrophenyl)imino]methyl]phenol], the IC50 in test [1] is approximately 5 µM. In addition, the “Residual ATPase Activity (%)” value in test [1] (setting [4]) stood at 0%.
